In ChEMBL document CHEMBL5523673, “Progress in the controllability technology of PROTAC” (Eur J Med Chem, 2024):

Assays:
[1] = target: T1, von Hippel-Lindau disease tumor suppressor/Bromodomain-containing protein 4 (Homo sapiens, UniProt O60885+P40337); assay: PROTAC activity at human VHL/BRD4 in human MCF7 cells assessed as maximum degradation of BRD4 measured after 18 hrs by Western blot analysis relative to control; assay type: cell-based
MCF7 [2] = assay: Cytotoxicity against human MCF7 cells assessed as reduction in cell growth incubated for 72 hrs by CellTiter-Glo luminescent assay; assay type: functional, cell-based; conditions: MCF7, 72 h
[3] = target: T1, von Hippel-Lindau disease tumor suppressor/Bromodomain-containing protein 4; assay: PROTAC activity at VHL/BRD4 in human MCF7 cells assessed as induction of BRD4 degradation incubated for 18 hrs by Western blotting analysis; assay type: cell-based
MCF7 [4] = assay: Antiproliferative activity against human MCF7 cells assessed as reduction in cell viability incubated for 72 hrs by CellTiter-Glo luminescent assay; assay type: functional, cell-based; conditions: MCF7, 72 h
[5] = target: T1, von Hippel-Lindau disease tumor suppressor/Bromodomain-containing protein 4; assay: PROTAC activity at human VHL/BRD4 in human HeLa cells assessed as maximal degradation of BRD4 incubated for 24 hrs by Western blot analysis relative to control; assay type: cell-based
[6] = Antiproliferative activity against mouse 3T3 cells assessed as reduction in cell viability incubated for 72 hrs by CCK-8 assay; assay type: toxicity, cell-based; conditions: NIH3T3 cells
[7] = Antiproliferative activity against human HFF-1 cells assessed as reduction in cell viability incubated for 72 hrs by CCK-8 assay; assay type: toxicity, cell-based
T47D = assay: Antiproliferative activity against human T47D cells assessed as reduction in cell viability incubated for 72 hrs by CCK-8 assay; assay type: functional, cell-based
OVCAR-8 = assay: Antiproliferative activity against human OVCAR-8 cells assessed as reduction in cell viability incubated for 72 hrs by CCK-8 assay; assay type: functional, cell-based; conditions: OVCAR-8, 72 h
[8] = Antiproliferative activity against human HK-2 cells assessed as reduction in cell viability incubated for 72 hrs by CCK-8 assay; assay type: toxicity, cell-based
[9] = target: Protein cereblon/Bromodomain-containing protein 4 (Homo sapiens) (UniProt O60885+Q96SW2); assay: PROTAC activity at CRBN/BRD4 in human NAMALVA cells assessed as maximal degradation at 1 uM incubated for 30 mins by Western blot analysis relative to control; assay type: cell-based
Chain of Protein cereblon/Bromodomain-containing protein 4 (Homo sapiens) (Q96SW2 whole entry, looked up, other chains not shown): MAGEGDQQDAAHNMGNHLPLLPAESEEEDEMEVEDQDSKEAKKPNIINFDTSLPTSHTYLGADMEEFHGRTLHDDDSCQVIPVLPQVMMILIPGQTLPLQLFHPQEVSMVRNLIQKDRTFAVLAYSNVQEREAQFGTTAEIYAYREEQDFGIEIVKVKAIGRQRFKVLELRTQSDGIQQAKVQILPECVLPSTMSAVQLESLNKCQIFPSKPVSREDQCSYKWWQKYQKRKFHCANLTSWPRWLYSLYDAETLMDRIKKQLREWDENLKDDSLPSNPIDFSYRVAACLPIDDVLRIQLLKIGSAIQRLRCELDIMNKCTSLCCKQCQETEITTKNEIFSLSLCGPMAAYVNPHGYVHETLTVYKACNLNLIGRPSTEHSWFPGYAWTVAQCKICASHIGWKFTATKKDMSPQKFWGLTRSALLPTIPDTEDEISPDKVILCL

[10] = target: Epidermal growth factor receptor (Homo sapiens, UniProt P00533); assay: Inhibition of EGFR (unknown origin)
Chain of Epidermal growth factor receptor (P00533 whole entry): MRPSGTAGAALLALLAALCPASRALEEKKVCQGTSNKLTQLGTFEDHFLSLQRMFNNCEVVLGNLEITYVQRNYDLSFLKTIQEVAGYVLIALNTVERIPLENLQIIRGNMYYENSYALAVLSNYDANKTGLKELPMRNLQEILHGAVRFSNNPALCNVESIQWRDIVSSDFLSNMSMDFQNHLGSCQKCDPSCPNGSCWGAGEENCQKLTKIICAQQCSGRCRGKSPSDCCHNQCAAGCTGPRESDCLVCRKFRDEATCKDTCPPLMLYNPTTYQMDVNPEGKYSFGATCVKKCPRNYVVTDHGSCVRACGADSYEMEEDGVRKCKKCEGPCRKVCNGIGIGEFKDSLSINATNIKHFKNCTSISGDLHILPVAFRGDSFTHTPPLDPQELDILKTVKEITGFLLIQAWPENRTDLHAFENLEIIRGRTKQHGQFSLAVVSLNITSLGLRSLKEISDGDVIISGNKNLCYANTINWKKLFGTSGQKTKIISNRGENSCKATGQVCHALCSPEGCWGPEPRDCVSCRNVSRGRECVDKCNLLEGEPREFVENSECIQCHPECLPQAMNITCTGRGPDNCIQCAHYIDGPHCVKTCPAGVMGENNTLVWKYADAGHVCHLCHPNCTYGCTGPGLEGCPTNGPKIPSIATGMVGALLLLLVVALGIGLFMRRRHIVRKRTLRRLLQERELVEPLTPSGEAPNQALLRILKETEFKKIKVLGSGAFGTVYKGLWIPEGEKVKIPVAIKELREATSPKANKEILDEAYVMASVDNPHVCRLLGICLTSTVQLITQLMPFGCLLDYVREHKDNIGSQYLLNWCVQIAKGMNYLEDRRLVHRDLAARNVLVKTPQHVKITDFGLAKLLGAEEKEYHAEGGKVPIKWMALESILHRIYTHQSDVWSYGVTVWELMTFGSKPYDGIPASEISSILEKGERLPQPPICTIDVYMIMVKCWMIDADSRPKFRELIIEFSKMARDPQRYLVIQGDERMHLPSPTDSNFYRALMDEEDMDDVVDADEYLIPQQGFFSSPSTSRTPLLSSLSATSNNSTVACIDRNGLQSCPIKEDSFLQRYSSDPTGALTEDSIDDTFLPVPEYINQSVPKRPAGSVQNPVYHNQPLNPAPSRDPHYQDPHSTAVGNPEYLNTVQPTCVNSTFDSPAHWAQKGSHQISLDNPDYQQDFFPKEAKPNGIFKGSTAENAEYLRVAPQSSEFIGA

T1 sequence (P40337 whole entry, looked up, other chains not shown): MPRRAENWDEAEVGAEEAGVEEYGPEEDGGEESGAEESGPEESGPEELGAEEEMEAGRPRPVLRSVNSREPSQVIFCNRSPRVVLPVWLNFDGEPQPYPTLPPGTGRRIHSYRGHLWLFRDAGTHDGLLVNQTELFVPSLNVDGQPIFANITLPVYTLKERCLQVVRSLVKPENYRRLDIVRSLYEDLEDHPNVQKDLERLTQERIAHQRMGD

IC50 (MCF7 [4])	IC50 (T47D)	IC50 (OVCAR-8)	Structure (SMILES)	IC50 at 72 h [6]	IC50 at 72 h [7]	IC50 at 72 h [8]	also measured
122 nM	–	–	Cc1sc2c(c1C)C(c1ccc(Cl)cc1)=N[C@@H](CC(=O)NCCCCCN(Cc1ccc(B(O)O)cc1)c1cccc3c1CN(C1CCC(=O)NC1=O)C3=O)c1nnc(C)n1-2 (stereo partly drawn)	–	–	–	Emax [1]: 77.5%; IC50 (MCF7 [2]): 1020 nM; DC50 [3]: 31.2 nM
–	–	–	Cc1ncsc1-c1ccc([C@H](C)NC(=O)[C@@H]2C[C@@H](OC(=O)Cc3ccc(B4OC(C)(C)C(C)(C)O4)cc3)CN2C(=O)[C@@H](NC(=O)COCCCOCCNC(=O)C[C@@H]2N=C(c3ccc(Cl)cc3)c3c(sc(C)c3C)-n3c(C)nnc32)C(C)(C)C)cc1	–	–	–	Emax [5]: 70%
120 nM	13 nM	215 nM	Cc1ncsc1-c1ccc([C@H](C)NC(=O)[C@@H]2C[C@@H](O)CN2C(=O)[C@@H](NC(=O)COCCCOCCNC(=O)C[C@@H]2N=C(c3ccc(Cl)cc3)c3c(sc(C)c3C)-n3c(C)nnc32)C(C)(C)C)cc1	210 nM	1100 nM	160 nM	–
–	18 nM	297 nM	Cc1ncsc1-c1ccc([C@H](C)NC(=O)[C@@H]2C[C@@H](OC(=O)CCCCn3cc(CNC(=O)CC[C@H](NC(=O)c4ccc(NCc5cnc6nc(N)[nH]c(=O)c6n5)cc4)C(=O)O)nn3)CN2C(=O)[C@@H](NC(=O)COCCCOCCNC(=O)C[C@@H]2N=C(c3ccc(Cl)cc3)c3c(sc(C)c3C)-n3c(C)nnc32)C(C)(C)C)cc1	1400 nM	> 10000 nM	2100 nM	–
–	–	–	COc1cc(CN(CCCCNC(=O)COc2cccc3c2C(=O)N(C2CCC(=O)NC2=O)C3=O)C(=O)CC2N=C(c3ccc(Cl)cc3)c3c(sc(C)c3C)-n3c(C)nnc32)c([N+](=O)[O-])cc1OC (stereo not drawn)	–	–	–	Emax [9]: 93%
–	–	–	COc1cc2ncnc(N(Cc3ccc([N+](=O)[O-])cc3)c3ccc(F)c(Cl)c3)c2cc1OCCOCCOCCOCCC(=O)Nc1cccc2c1CN(C1CCC(=O)NC1=O)C2=O (stereo not drawn)	–	–	–	IC50 [10]: 3560 nM
